Earlier results in patent US8735434B2, “Compounds as cannabinoid receptor ligands” (priority 2007, dated 2014).

How the values were obtained:
[1] = test system: microglial; conditions: in vitro
[2] = test system: apolipoprotein E knockout mice
[3] = test system: animal models; conditions: acute thermal pain, persistent pain, inflammatory pain, neuropathic pain
[4] = test system: osteoclast
[5] = test system: mice; conditions: model for post-menopausal osteoporosis
[6] = test system: rodent models; conditions: neuropathic, incisional, chronic and acute inflammatory pain
[7] = test system: rat; conditions: rat formalin model of persistent pain

## CCCC(C)(C)c1ccc2c(c1)OC(C)(C)[C@@H]1CC=C(C)C[C@@H]21 [JWH-133]
[1]
  effect on β-amyloid-induced microglial activation and neurotoxicity: abrogated

## (−)-Δ^9-Tetrahydrocannabinol [THC]
[2]; low doses
  progression of atherosclerotic lesions: slowed the progression of atherosclerotic lesions

## CN1CCCCC1Cn1cc(C(=O)c2cc([N+](=O)[O-])ccc2I)c2ccccc21 (stereo not drawn) [AM-1241]
[3]
  analgesic efficacy: robust analgesic efficacy

## SR144528
[1]; against JWH-133
  block of the JWH-133 effects on microglial activation and neurotoxicity: can be blocked
[4]
  effect on osteoclast activity: inhibit osteoclast activity
[5]
  effect on ovariectomy-induced bone loss: reverse ovariectomy-induced bone loss
[2]; against THC
  inhibition of the THC effects on atherosclerotic lesions: these effects were inhibited

## COc1ccc2c(c1)c(CCN1CCOCC1)c(C)n2C(=O)c1cccc(Cl)c1Cl [GW405833]
[6]
  efficacy in pain models: efficacious

## CCCCCCC(C)(C)c1cc(OC)c([C@@H]2C=C(CO)[C@@H]3C[C@H]2C3(C)C)c(OC)c1 [HU-308]
[7]
  antinociceptive response: elicits an antinociceptive response
